# Activity calls are given as the source filed them.
# What was measured:
# [1] = molecular target: T1, Low molecular weight phosphotyrosine protein phosphatase (Homo sapiens, UniProt P24666); type: functional; conditions: read-out: IC50_Mean
# T1 sequence (P24666 whole entry): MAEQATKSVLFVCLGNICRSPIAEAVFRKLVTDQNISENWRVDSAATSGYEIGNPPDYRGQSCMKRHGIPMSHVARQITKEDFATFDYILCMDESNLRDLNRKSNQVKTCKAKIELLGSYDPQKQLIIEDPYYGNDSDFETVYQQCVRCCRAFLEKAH
# [2] = molecular target: T2, Carboxy-terminal domain RNA polymerase II polypeptide A small phosphatase 1 (Homo sapiens, UniProt Q9GZU7); test: inhibitors of CTDSP1, concentration-response testing, biochemical assay, absorbance-based, actives from ultra-high-throughput screening (AID 540297); type: functional
# T2 sequence (Q9GZU7 whole entry): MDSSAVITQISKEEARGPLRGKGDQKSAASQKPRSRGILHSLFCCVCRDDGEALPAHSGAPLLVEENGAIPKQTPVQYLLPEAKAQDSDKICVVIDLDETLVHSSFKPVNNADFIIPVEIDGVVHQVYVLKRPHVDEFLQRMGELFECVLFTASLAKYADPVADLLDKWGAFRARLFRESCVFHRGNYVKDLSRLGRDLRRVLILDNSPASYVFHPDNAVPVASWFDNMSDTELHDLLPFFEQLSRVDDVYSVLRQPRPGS
# [3] = molecular target: T1, Low molecular weight phosphotyrosine protein phosphatase; type: functional; conditions: read-out: IC50_Mean; remark: listed apart in the source
# [4] = molecular target: T3, Apoptotic protease-activating factor 1 (Homo sapiens, UniProt O14727); test: SAR analysis of small molecule Activators of Apaf-1 in a Fluorescent assay.; type: functional; conditions: read-out: EC50_Mean
# T3 sequence (O14727 whole entry): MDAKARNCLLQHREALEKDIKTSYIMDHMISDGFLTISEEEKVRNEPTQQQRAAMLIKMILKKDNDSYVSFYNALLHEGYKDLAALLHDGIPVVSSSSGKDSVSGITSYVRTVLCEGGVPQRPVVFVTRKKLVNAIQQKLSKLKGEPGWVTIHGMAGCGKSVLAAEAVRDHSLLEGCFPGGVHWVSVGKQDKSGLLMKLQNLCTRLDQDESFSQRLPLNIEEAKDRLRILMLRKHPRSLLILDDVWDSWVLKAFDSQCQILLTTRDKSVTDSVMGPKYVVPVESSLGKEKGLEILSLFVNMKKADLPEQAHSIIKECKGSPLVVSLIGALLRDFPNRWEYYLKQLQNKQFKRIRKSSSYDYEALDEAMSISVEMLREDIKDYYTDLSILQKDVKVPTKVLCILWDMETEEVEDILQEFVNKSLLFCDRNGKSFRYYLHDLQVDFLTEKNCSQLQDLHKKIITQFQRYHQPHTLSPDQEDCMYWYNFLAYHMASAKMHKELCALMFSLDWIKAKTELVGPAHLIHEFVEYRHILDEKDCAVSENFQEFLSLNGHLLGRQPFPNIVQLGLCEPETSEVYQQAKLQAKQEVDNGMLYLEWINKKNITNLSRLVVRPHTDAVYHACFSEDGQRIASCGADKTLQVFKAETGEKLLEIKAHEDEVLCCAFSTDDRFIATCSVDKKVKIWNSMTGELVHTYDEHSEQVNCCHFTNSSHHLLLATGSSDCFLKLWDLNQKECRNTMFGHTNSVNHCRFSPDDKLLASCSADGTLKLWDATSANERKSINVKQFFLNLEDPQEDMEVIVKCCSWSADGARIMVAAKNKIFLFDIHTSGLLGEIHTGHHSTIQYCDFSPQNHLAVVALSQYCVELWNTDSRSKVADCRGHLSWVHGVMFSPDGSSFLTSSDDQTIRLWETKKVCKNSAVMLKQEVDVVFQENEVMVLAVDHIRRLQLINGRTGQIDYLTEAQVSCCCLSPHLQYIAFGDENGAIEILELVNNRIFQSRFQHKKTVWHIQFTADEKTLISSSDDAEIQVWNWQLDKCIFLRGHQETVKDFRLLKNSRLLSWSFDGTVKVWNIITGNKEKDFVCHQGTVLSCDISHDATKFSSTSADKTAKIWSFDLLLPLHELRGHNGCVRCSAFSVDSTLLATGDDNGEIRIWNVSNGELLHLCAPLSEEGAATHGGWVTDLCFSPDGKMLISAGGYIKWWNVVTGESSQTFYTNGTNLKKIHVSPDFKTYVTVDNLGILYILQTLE
# [5] = molecular target: Ras and Rab interactor 1/Tyrosine-protein kinase ABL1 (Homo sapiens, UniProt P00519+Q13671); type: functional;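 note: biochemical TR-FRET dose-response test measuring inhibition of binding between Rin1 and Abl proteins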
# [6] = system: HEK293; test: inhibitors of LMP1-driven NF-kB reporter, dose response, cell-based, HEK293, luciferase, cherry-pick (AID 588343); type: functional; conditions: Homo sapiens
# [7] = molecular target: T4, DNA repair and recombination protein RAD54-like (Homo sapiens, UniProt Q92698); test: inhibitors of human RAD54 branch migration, confirmation, biochemical, fluorescence, cherry-picked samples, dose series (AID 651657); type: functional
# T4 sequence (Q92698 whole entry): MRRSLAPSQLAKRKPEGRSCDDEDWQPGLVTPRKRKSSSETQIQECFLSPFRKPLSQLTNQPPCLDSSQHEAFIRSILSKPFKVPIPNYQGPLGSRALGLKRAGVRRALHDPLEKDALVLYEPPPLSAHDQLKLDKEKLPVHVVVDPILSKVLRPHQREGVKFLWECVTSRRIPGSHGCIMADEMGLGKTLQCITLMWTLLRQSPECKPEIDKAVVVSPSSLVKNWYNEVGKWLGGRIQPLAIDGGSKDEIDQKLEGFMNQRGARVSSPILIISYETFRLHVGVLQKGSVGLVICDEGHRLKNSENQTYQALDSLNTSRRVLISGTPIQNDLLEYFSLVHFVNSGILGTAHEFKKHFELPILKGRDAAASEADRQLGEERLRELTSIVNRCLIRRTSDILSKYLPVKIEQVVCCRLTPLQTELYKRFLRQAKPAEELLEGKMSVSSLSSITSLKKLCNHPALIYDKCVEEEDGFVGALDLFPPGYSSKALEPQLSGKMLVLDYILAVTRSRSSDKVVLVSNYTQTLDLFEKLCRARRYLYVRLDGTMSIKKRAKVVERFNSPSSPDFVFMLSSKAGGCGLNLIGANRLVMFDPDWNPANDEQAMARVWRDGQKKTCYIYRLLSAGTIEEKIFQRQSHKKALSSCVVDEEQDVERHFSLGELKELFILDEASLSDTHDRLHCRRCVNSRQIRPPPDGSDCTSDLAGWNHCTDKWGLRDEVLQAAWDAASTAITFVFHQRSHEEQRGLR
# [8] = molecular target: T5, Small ubiquitin-related modifier 1 (Homo sapiens, UniProt P63165); test: inhibitors of SUMO1 peptide binding, dose response, biochemical, fluorescence polarization, uHTS hits (AID 624382); type: functional; conditions: read-out: IC50_Mean
# [9] = molecular target: T5, Small ubiquitin-related modifier 1; test: inhibitors of SUMO1 partner interactions, dose response, biochemical, FRET (AID 624383); type: functional; conditions: read-out: IC50_Mean
# [10] = ARNT/TACC3 interaction disruptors, potency, confirmation, biochemical, AlphaScreen, cherry-picked samples (AID 651703); type: functional, Homo sapiens;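 note: His-tagged ARNT PAS-B domain paired with GST-TACC3 E629A dimer coactivator fragment; potency of inhibitors that break up the complex and lower AlphaScreen signal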
# [11] = molecular target: Hepatocyte nuclear factor 4-alpha (Homo sapiens, UniProt P41235); type: functional, cell-based;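 note: biochemical luminescence-based dose-response counterscreen measuring inhibition of HNF4 dimerization, run alongside a screen for blockers of ABHD5–perilipin-5 interaction; split luciferase complementation of HNF4 fusion proteins in cell lysate measuring dimerization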
# [12] = growth suppression of beta-catenin-knockout colon cells, dose response, cell-based, HCT116, human colon tumor (AID 1045); type: functional;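 note: HCT116 colon tumor cells with beta catenin knocked out; cells exposed to compound for 60 hours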
# [13] = growth suppression of PTEN-null colon cells, dose response, cell-based, HCT116 PTEN knockout (AID 1047); type: functional;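 note: HCT116 colon tumor cells with PTEN knocked out; cells exposed to compound for 60 hours before readout; potency for loss of cell viability measured by luminescence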
# [14] = system: HEK293; test: cells; type: functional, cell-based; conditions: Homo sapiens
# [15] = system: HEK293; test: cells; type: functional, cell-based; conditions: Homo sapiens; remark: listed apart in the source
# [16] = system: HEK293; test: cells; type: functional, cell-based; conditions: Homo sapiens; remark: listed apart in the source
# [17] = molecular target: Nucleotide-binding oligomerization domain-containing protein 2 (Homo sapiens, UniProt Q9HC29); test: NOD2 signaling inhibitors, cell-based, luminescence, uHTS, HEK293 (AID 1566); type: functional
# [18] = system: HEK293; test: NOD2 signaling inhibitors in MDP-stimulated cells, cell-based, uHTS, luminescence (AID 2001); type: functional; conditions: Homo sapiens
# [19] = system: HEK293; test: NOD1 signaling inhibitors, primary screen, cell-based, luminescence, uHTS (AID 1578); type: functional; conditions: Homo sapiens
# [20] = molecular target: T3, Apoptotic protease-activating factor 1; type: functional
# [21] = molecular target: T6, Interleukin-8 (Homo sapiens, UniProt P10145); test: Dose Response confirmation of uHTS small molecule hits for cystic fibrosis induced NFkb Inhibitors in a PAF-induced IL8 counterscreen.; type: functional; conditions: read-out: IC50_Mean
# T6 sequence (P10145 whole entry): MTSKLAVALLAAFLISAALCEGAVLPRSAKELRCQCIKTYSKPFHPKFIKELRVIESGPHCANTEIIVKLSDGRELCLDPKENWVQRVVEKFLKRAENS
# [22] = system: H9c2; test: cells; type: functional, cell-based; conditions: Rattus norvegicus, H9c2, Myocardium;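 note: confirmatory concentration-response retest of ultra-high-throughput screening hits for modulation of myocardial damage; cell death induced by hydrogen peroxide oxidative stress; compound pretreatment for 60 min then peroxide exposure for 2 h; potency is for protecting the cells against peroxide damage rather than for killing them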
# [23] = control 3'UTR Renilla luciferase suppression, dose response, counter-screen for Shn3 inhibitor project, cell-based, Clone20-Shn3RL, cherry-picked (AID 624133); type: functional
# [24] = Shn3 3'UTR reporter inhibitors, dose response, cell-based, Clone20 osteoblasts, firefly luciferase, cherry-picked (AID 624132); type: functional;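 note: firefly luciferase luminescence from reporter carrying the Shn3 3'UTR in osteoblasts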
# [25] = molecular target: T7, Ubiquitin-conjugating enzyme E2 N (Homo sapiens, UniProt P61088); type: functional
# T7 sequence (P61088 whole entry): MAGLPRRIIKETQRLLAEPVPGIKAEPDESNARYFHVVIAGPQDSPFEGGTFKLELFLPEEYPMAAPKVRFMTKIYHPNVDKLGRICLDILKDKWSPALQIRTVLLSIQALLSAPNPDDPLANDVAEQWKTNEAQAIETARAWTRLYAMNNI
# [26] = molecular target: T8, Bcl-2-related protein A1 (Mus musculus, UniProt Q07440); type: functional;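 note: confirmatory dose–response counterscreen on Bfl-1, used to check hits from a UBC13 polyubiquitin inhibitor campaign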
# T8 sequence (Q07440 whole entry): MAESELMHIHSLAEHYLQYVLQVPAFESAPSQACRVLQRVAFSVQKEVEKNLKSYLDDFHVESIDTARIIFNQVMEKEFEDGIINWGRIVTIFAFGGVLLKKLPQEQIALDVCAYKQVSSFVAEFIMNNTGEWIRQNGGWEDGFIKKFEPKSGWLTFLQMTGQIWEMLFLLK
# [27] = system: INS1; test: beta cell apoptosis inhibitors, cytokine rescue, dose response, luminescence, retest (AID 449756); type: functional, cell-based; conditions: Rattus norvegicus;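 note: cell death triggered by IL-1 beta plus TNF-alpha plus IFN-gamma mixture; protective hits raise ATP signal compared with cytokine alone wells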
# [28] = HepG2 cell cytotoxicity, dose response, cytotoxicity control for Shn3 inhibitor project, CellTiter-Glo, cherry-picked (AID 624134); type: functional, cell-based
# [29] = Luminescence Cell-Based Dose Retest to Confirm Inhibitors of Cancer Stem Cells. [Related pubchem assays (depositor defined):AID2717, AID2721]; type: functional; conditions: Homo sapiens
# [30] = molecular target: T7, Ubiquitin-conjugating enzyme E2 N; type: functional; remark: listed apart in the source
# 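Throughout, for EC50 Mean: caspase-3 cleavage of fluorogenic Rh110 DEVD substrate downstream of apoptosome activation.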
# T5 sequence (P63165 whole entry): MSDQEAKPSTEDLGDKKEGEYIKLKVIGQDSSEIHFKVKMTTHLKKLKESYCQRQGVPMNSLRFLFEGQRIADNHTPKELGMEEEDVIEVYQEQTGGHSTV
# Hepatocyte nuclear factor 4-alpha, sequence (P41235 whole entry, the tested form may be a part): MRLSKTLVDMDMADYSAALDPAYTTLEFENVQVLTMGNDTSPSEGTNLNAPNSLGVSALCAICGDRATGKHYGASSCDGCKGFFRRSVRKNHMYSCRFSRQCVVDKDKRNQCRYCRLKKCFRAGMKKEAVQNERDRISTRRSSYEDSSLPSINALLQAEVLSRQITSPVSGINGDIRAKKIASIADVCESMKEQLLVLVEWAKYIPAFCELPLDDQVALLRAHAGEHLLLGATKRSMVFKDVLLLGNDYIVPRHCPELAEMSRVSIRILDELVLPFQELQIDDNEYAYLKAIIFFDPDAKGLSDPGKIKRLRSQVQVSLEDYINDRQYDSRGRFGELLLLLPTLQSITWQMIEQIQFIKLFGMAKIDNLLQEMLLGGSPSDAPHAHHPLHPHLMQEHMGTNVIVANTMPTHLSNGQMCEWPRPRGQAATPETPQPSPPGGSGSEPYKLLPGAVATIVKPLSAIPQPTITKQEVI
# Ras and Rab interactor 1/Tyrosine-protein kinase ABL1, sequence (P00519 whole entry): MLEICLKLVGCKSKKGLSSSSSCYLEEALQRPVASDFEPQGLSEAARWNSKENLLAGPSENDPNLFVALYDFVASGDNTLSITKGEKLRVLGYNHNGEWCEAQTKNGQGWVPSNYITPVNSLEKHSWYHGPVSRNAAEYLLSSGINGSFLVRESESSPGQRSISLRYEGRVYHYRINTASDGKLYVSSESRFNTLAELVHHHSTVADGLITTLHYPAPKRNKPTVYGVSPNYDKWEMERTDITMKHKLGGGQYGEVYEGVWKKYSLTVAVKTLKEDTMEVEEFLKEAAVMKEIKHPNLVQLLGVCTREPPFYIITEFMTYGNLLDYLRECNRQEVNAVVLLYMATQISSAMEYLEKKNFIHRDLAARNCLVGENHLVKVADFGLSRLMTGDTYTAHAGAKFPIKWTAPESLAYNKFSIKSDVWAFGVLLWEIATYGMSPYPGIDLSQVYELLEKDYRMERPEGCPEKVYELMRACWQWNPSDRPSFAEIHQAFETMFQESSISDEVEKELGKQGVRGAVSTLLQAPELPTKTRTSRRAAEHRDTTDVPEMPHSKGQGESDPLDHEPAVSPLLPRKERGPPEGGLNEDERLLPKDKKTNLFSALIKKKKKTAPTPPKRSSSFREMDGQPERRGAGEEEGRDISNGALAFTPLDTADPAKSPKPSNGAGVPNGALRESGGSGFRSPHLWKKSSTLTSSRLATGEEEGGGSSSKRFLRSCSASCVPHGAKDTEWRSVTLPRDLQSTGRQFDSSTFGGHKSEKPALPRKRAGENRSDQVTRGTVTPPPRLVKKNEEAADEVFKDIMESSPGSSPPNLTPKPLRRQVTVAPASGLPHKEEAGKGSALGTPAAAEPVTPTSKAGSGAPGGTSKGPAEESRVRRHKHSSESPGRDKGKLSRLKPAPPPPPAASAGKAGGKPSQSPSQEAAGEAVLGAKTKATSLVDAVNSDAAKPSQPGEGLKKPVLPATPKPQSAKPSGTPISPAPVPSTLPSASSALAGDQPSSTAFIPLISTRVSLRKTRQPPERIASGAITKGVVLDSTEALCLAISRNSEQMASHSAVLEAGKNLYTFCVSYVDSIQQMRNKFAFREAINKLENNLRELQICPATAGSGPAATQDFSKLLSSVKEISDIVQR
# Ras and Rab interactor 1/Tyrosine-protein kinase ABL1, sequence (Q13671 whole entry): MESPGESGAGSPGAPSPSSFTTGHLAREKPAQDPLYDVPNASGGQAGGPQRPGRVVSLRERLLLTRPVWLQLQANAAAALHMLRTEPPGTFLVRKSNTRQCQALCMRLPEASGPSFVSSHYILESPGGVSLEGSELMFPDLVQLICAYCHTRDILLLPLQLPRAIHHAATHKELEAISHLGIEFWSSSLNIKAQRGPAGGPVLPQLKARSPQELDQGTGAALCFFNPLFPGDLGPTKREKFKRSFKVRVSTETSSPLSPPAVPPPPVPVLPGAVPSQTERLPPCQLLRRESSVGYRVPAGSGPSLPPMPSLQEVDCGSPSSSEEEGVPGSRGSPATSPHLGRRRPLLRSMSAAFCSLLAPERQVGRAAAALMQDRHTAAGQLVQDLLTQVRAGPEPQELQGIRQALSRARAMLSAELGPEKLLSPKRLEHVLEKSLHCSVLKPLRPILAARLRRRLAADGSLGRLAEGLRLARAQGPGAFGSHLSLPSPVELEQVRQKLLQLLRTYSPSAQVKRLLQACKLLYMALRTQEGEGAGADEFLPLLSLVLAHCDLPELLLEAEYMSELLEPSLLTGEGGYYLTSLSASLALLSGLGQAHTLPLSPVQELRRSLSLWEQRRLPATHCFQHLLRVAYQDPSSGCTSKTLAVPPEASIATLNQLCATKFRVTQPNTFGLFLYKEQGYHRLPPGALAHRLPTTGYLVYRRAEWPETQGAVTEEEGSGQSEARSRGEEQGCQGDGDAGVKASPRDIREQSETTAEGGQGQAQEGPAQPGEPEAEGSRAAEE
# Nucleotide-binding oligomerization domain-containing protein 2, sequence (Q9HC29 whole entry, the tested form may be a part): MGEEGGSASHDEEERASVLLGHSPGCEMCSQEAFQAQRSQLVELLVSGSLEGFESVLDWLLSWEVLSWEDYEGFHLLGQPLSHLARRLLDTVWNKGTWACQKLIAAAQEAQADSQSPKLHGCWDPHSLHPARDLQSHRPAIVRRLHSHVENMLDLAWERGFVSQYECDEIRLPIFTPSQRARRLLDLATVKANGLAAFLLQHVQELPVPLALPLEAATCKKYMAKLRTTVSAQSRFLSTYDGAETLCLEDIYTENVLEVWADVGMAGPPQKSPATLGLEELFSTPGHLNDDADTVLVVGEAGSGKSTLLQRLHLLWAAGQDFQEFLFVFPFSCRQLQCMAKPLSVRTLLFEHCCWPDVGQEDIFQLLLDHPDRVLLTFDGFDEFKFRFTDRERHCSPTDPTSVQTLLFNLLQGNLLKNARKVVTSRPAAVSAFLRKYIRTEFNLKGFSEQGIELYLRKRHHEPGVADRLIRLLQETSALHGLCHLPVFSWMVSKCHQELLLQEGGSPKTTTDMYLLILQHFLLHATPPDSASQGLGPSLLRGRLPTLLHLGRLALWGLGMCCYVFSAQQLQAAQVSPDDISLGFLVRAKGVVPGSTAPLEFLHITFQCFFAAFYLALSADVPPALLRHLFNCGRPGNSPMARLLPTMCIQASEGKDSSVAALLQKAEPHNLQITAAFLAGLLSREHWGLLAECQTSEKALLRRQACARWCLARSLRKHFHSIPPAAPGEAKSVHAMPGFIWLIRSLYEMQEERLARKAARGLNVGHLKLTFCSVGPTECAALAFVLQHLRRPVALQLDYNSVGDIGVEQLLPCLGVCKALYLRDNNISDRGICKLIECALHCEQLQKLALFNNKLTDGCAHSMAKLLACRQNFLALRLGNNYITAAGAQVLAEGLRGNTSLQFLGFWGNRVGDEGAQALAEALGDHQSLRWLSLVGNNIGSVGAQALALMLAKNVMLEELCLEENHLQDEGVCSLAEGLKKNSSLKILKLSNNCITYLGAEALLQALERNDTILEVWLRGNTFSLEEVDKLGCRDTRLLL
smiles,measurement,setting,value
COc1ccc(NC(=O)/C(C#N)=C\c2ccc(OCc3ccc(C(=O)O)cc3)c(OC)c2)cc1,IC50,[1],35 µM (inactive)
same,IC50,[2],1.57 µM (active)
same,IC50,[3],31.5 µM (inactive)
COc1ccc(C2=NOC3(CC(=O)N(c4ccc(C)cc4)C3=O)C2)cc1 (configuration not stated),EC50,[4],> 100 µM (inactive)
CCOC(=O)CCCCCC(=O)Nc1ccc2c(c1)C(=O)N([C@H](C)CO)C[C@@H](C)[C@@H](CN(C)C(=O)CCC(F)(F)F)OCCCC[C@H](C)O2,IC50,[5],3.59 µM (active)
COc1ccc(C(=O)Nc2cc(C)c(NC(=O)c3ccccc3OC)cn2)cc1,AC50,[6],169 µM (active)
same,AC50,[7],100 µM (inactive)
same,IC50,[8],> 66.6 µM (inactive)
same,IC50,[9],1.48 µM (active)
O=C(NCCCn1ccnc1)c1cc2cc([N+](=O)[O-])ccc2oc1=O,AC50,[10],131 µM (active)
CC(CNc1ccc(Oc2ccccc2)cc1)C(=O)O (configuration not stated),EC50,[4],> 100 µM (inactive)
CCCCn1c(SCC(=O)NCc2ccco2)nnc1-c1ccoc1C,IC50,[11],12.9 µM (inactive)
same,IC50,[2],6.25 µM (active)
CCOC(=O)N1CCN(C(=O)Nc2ccc(NC(=O)N3CCN(C(=O)OCC)CC3)cc2)CC1,IC50,[5],7.81 µM (active)
CC1=CC(C)(C)Nc2ccc(OC(=O)CN3C(=O)C4CCCCC4C3=O)cc21 (configuration not stated),IC50,[11],4.53 µM (active)
same,EC50,[12],4.74 µM (active)
same,EC50,[13],7.23 µM (active)
CCCCc1c(C)c(C#N)c2nc3ccccc3n2c1O,IC50,[14],> 20 µM (inactive)
same,IC50,[15],13.1 µM (active)
same,IC50,[16],> 20 µM (inactive)
same,EC50,[17],8.9 µM (active)
same,IC50,[18],10.8 µM (inactive)
same,EC50,[19],4.1 µM (active)
same,IC50,[20],7.79 µM (active)
CC(=O)Nc1ccc(NC(=O)c2cc(-c3ccc(C)cc3O)n[nH]2)cc1,IC50,[8],> 66.6 µM (inactive)
same,IC50,[9],13.3 µM (active)
COc1ccc(CNc2nn3c(-c4cccc(C(=O)N(C)C)c4)cnc3s2)cc1,IC50,[21],18 µM (inactive)
same,IC50,[22],42.1 µM (inactive)
NC1=NC[C@@H](CC2CCCCC2)N1CCc1cc(C(F)(F)F)cc(C(F)(F)F)c1,AC50,[23],24.8 µM (active)
same,AC50,[24],9.92 µM (active)
same,IC50,[25],19.6 µM (active)
same,IC50,[26],> 20 µM (inactive)
same,AC50,[27],7.06 µM (active)
same,AC50,[28],14.7 µM (active)
same,AC50,[29],3.19 µM (active)
same,IC50,[30],11.5 µM (active)
same,IC50,[20],60.4 µM (active)
